Results reported in PMC4267739, “Functional Characterization of Corynebacterium glutamicum Mycothiol S-Conjugate Amidase” (PLoS ONE, 2014).
Values after ≈ are worked out from the molar mass of the structure shown.

Assays:
[1] = system: T1, Corynebacterium glutamicum WT(pXMJ19); experiment: microbe, parasite or virus in culture; design: species or system Corynebacterium glutamicum RES167 (pXMJ19); Broth dilution MIC in LB at 30 °C, serial 2-fold dilution, growth checked after 1 to 2 days; conditions: LB, 30 °C, wild type with empty vector pXMJ19; for MIC: Corynebacterium glutamicum, read-out: MIC (µg ml^−1) / WT(pXMJ19)
T1 construct: RES167 wild type carrying empty vector pXMJ19
Protocol: Disk diffusion assays were performed for antibiotics, alkylating agents, and oxidative agents according to Rawat et al.. Briefly, cells were grown to the mid-log phase and a lawn of cells was plated onto LB plates. After the paper disks were placed into the plates, various amounts of agents (10 µl) were added to the disk. The disks were allowed to dry and the plates were incubated for 2 to 3 days. For the minimal broth dilution assay, antibiotics were serially diluted (0.5×) in LB medium (1 ml) and cells (A 600 = 1.6) were inoculated. After 1 to 2 days of incubation at 30°C, the tubes were checked for growth. The bacteriostasis growth curve assay was used to determine the sensitivity of C. glutamicum to heavy metal stress. LB-grown strains (50 µl) were transferred to LB broth (5 ml), with and without addition of various concentrations of heavy metals (Cd^2+, Ni^2+, Cr^2+ and Cu^2+) and incubated at 30°C. The cellular growth was monitored turbidimetrically (A 600) after 24 h. All assays were performed in triplicate. First, sensitivity of C. glutamicum strains to Macrolides and β-Lactams was tested. […] These observations indicate that the Mca-dependent detoxification pathway indeed plays a major role in the detoxification of rifamycin S. However, no significant difference was found in the size of growth inhibition zones around erythromycin, lincomycin and spectinomycin (all belong to […]) between WT(pXMJ19), Δmca(pXMJ19) and the complementary strain Δmca(pXMJ19-mca) (Table 3; p>0.05). Similar trend was obtained in the MIC data (Table 4). […] Bacterial strains used in this study are listed in S1 Table. Escherichia coli and C. glutamicum strains were routinely cultured in Luria-Bertani (LB) broth or on LB plates at 37°C and 30°C, respectively. For generation of mutants and maintenance of C. glutamicum, brain heart infusion broth with 0.5 M sorbitol (BHIS) was used. The C. glutamicum RES167 strain was the parent of all derivatives used in this study. In-frame deletions were generated by the method as described previously. Cell growth was monitored by measuring absorbance at 600 nm (A 600). Antibiotics were added at the following concentrations: kanamycin, 50 µg ml^−1 for E. coli and 25 µg ml^−1 for C. glutamicum; nalidixic acid, 40 µg ml^−1 for C. glutamicum; chloramphenicol, 20 µg ml^−1 for E. coli and 10 µg ml^−1 for C. glutamicum.

[2] = system: CC(=O)N[C@@H](CSCc1c(C)c(=O)n2c(=O)c(C)c(C)n12)C(=O)N[C@H]1[C@@H](O[C@@H]2[C@H](O)[C@H](O)[C@@H](O)[C@H](O)[C@H]2O)O[C@H](CO)[C@@H](O)[C@@H]1O; experiment: purified protein; conditions: amidase activity, 10 µM enzyme, 0-10 mM MSmB, 50 mM HEPES pH 7.5, 37°C, Table 6 prints 92.34±1.5 mM and kcat unit min^-1
From the text: fluorescamine assay of released amine, Eadie-Hofstee on C. glutamicum Mca (mycothiol S-conjugate amidase; His6-Mca)

`CC[C@H]1OC(=O)[C@H](C)[C@@H](O[C@H]2C[C@@](C)(OC)[C@@H](O)[C@H](C)O2)[C@H](C)[C@@H](O[C@@H]2O[C@H](C)C[C@H](N(C)C)[C@H]2O)[C@](C)(O)C[C@@H](C)C(=O)[C@H](C)[C@@H](O)[C@]1(C)O` [Erythromycin] was tested, and the MIC [1] was 25 µg/mL (≈ 34.1 µM).

`CN(C)[C@@H]1C(O)=C(C(N)=O)C(=O)[C@@]2(O)C(O)=C3C(=O)c4c(O)cccc4[C@@](C)(O)[C@H]3C[C@@H]12` [Tetracycline] gave an MIC [1] of 3.12 µg/mL (≈ 7.03 µM).

With `CN[C@H](CC(C)C)C(=O)N[C@H]1C(=O)N[C@@H](CC(N)=O)C(=O)N[C@H]2C(=O)N[C@H]3C(=O)N[C@H](C(=O)N[C@H](C(=O)O)c4cc(O)cc(O)c4-c4cc3ccc4O)[C@H](O)c3ccc(c(Cl)c3)Oc3cc2cc(c3O[C@@H]2O[C@H](CO)[C@@H](O)[C@H](O)[C@H]2O[C@H]2C[C@](C)(N)[C@H](O)[C@H](C)O2)Oc2ccc(cc2Cl)[C@H]1O` [Vancomycin] the MIC [1] was 32 µg/mL (≈ 22.1 µM).

With `CO[C@H]1/C=C/O[C@@]2(C)Oc3c(C)c(O)c4c(c3C2=O)C(=O)C=C(NC(=O)/C(C)=C\C=C\[C@H](C)[C@H](O)[C@@H](C)[C@@H](O)[C@@H](C)[C@H](OC(C)=O)[C@@H]1C)C4=O` [Rifamycin S] the MIC [1] was 12.5 µg/mL (≈ 18 µM).

Molecule `CN[C@@H]1[C@H](O)[C@H](NC)[C@H]2O[C@@]3(O)C(=O)C[C@@H](C)O[C@H]3O[C@@H]2[C@H]1O` [Spectinomycin] has an MIC [1] of 128 µg/mL (≈ 385 µM).

In the case of `NC[C@@H]1O[C@H](O[C@H]2[C@@H](O)[C@H](O[C@@H]3[C@@H](O)[C@H](N)C[C@H](N)[C@H]3O[C@H]3O[C@H](CN)[C@@H](O)[C@H](O)[C@H]3N)O[C@@H]2CO)[C@H](N)[C@@H](O)[C@@H]1O` [Neomycin], the MIC [1] is reported as 7.5 µg/mL (≈ 12.2 µM).

For `CC1(C)S[C@@H]2[C@H](NC(=O)Cc3ccccc3)C(=O)N2[C@H]1C(=O)O` [Penicillin], the MIC [1] was > 350 µg/mL.

`CN[C@@H]1[C@H](O[C@H]2[C@H](O[C@H]3[C@H](O)[C@@H](O)[C@H](N=C(N)N)[C@@H](O)[C@@H]3N=C(N)N)O[C@@H](C)[C@]2(O)C=O)O[C@@H](CO)[C@H](O)[C@H]1O` [Streptomycin] was tested, and the “MIC (µg ml^−1) / WT(pXMJ19)” value ([1]; inhibitor) was 1.25 ug/mL.

`CCC[C@@H]1C[C@@H](C(=O)N[C@@H]([C@H]2O[C@H](SC)[C@H](O)[C@@H](O)[C@H]2O)[C@@H](C)O)N(C)C1` [Lincomycin] was tested, and the MIC [1] was 62.5 µg/mL (≈ 154 µM).

`O=C(O)c1cn(C2CC2)c2cc(N3CCNCC3)c(F)cc2c1=O` [Ciprofloxacin] gave an MIC [1] of 1.56 µg/mL (≈ 4.71 µM).

Molecule “C. glutamicum Mca (mycothiol S-conjugate amidase; His6-Mca) (Corynebacterium glutamicum ATCC 13032)” has a Km [2] of 92.30 ± 1.5 mM, a kcat [2] of 3.56 ± 0.9 s⁻¹ and a kcat/Km [2] of 38.5 ± 9.6 M⁻¹ s⁻¹.
